Source: ChEMBL document CHEMBL5236618, “Discovery and Optimization of Potent, Selective, and Brain-Penetrant 1-Heteroaryl-1H-Indazole LRRK2 Kinase Inhibitors for the Treatment of Parkinson's Disease” (J Med Chem, 2022)

Columns and labels:
[1] = Unbound clearance in rat at 0.1 mg/kg, iv administered as cassette dose measured upto 24 hrs by LC-MS/MS method; format: ADME, organism-based; conditions: in vivo
[2] = Mean residence time in rat at 0.1 mg/kg, iv administered as cassette dose measured upto 24 hrs by LC-MS/MS method; format: ADME, organism-based; conditions: in vivo
[3] = Clearance in rat at 0.1 mg/kg, iv administered as cassette dose measured upto 24 hrs by LC-MS/MS method; format: ADME, organism-based; conditions: in vivo
[4] = Unbound brain-to-plasma concentration ratio in rat; format: ADME, cell-free; conditions: read-out: K(p,uu,brain)
[5] = Mean residence time in dog at 3 mg/kg, po or 0.5 mg/kg, iv measured upto 24 hrs by LC-MS/MS method; format: ADME, organism-based, Canis lupus familiaris; conditions: in vivo
[6] = Unbound brain-to-plasma concentration ratio in non human primates; format: ADME, cell-free; conditions: read-out: K(p,uu,brain)
[7] = Unbound clearance in dog at 3 mg/kg, po or 0.5 mg/kg, iv measured upto 24 hrs by LC-MS/MS method; format: ADME, organism-based, Canis lupus familiaris; conditions: in vivo
[8] = Oral bioavailability in dog at 3 mg/kg measured upto 24 hrs by LC-MS/MS method; format: ADME, organism-based, Canis lupus familiaris; conditions: in vivo
[9] = Mean residence time in rat at 10 mg/kg, po or 2 mg/kg, iv measured upto 24 hrs by LC-MS/MS method; format: ADME, organism-based; conditions: in vivo
[10] = Oral bioavailability in rat at 10 mg/kg measured upto 24 hrs by LC-MS/MS method; format: ADME, organism-based; conditions: in vivo
[11] = Clearance in rhesus monkey at 2 mg/kg, iv measured upto 24 hrs by LC-MS/MS method; format: ADME, organism-based, Macaca mulatta; conditions: in vivo
[12] = Unbound clearance in rhesus monkey at 2 mg/kg, iv measured upto 24 hrs by LC-MS/MS method; format: ADME, organism-based, Macaca mulatta; conditions: in vivo
[13] = Unbound clearance in rat at 10 mg/kg, po or 2 mg/kg, iv measured upto 24 hrs by LC-MS/MS method; format: ADME, organism-based; conditions: in vivo
[14] = Mean residence time in rhesus monkey at 2 mg/kg, iv measured upto 24 hrs by LC-MS/MS method; format: ADME, organism-based, Macaca mulatta; conditions: in vivo

Row | CL free [1] | MRT [2] | clearance [3] | Kp uu [4] | MRT [5] | Kp uu [6] | CL free [7] | bioavailability [8] | MRT [9] | bioavailability [10] | clearance [11] | CL free [12] | CL free [13] | MRT [14] | Structure (SMILES)
1 | 5850 mL/min/kg | 0.5 h | 98 mL/min/kg | – | – | – | – | – | – | – | – | – | – | – | C[C@@H]1CN(c2cc(-c3ncc4ccc(-c5cnn(C)c5)cn34)ccn2)C[C@H](C)O1
2 | – | – | – | 0.5 | 7 h | 0.4 | 3200 mL/min/kg | 100% | 2 h | 38% | 16 mL/min/kg | 3400 mL/min/kg | 12700 mL/min/kg | 1.5 h | C[C@@H]1CN(c2cc(-c3n[nH]c4ccc(OC5(C)CC5)cc34)ncn2)C[C@H](C)O1 [MLi-2]
